Here are results for five compounds from patent publication US10821115B2, “Compounds that inhibit Mcl-1 protein” (priority 2017, dated 2020).

Test [1] deals with recombinant human Mcl-1 (residues 171-327) / Bim interaction (Homo sapiens (Human), UniProt Q07820). The test is described as follows: biochemical. The format is binding. The conditions noted are these: 0.1 nM Mcl-1(171-327), 0.05 nM biotin-Bim (51-76); read-out: Mcl-1 HTRF IC50. In general terms: In TR-FRET formats the signal depends on donor and acceptor labels being close together.
recombinant human Mcl-1 (residues 171-327) / Bim interaction, sequence (Q07820 171-327): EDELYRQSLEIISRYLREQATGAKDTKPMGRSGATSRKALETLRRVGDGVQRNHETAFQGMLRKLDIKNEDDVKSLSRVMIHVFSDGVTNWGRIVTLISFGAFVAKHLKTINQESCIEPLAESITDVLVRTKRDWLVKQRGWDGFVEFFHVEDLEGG

For test [2], the system named is OPM-2 Luc cells. The test is described as follows: tumor PD model (OPM-2 Luc). The format is in vivo. The conditions noted are these: dosed orally to female athymic nude mice inoculated with OPM-2 Luc cells; compared with Reference Compound 1. The method, then: Both compounds were dosed orally to female athymic nude mice inoculated with OPM-2 Luc cells.
Test [3] has as its system OPM-2 Luc cells. The test can be described thus: OPM-2 xenograft efficacy model. The format is in vivo. The following applies: dosed orally to female athymic nude mice inoculated with OPM-2 Luc cells. The method, then: Example 1 was dosed orally to female athymic nude mice inoculated with OPM-2 Luc cells.
Test [4] has as its system human multiple myeloma cell line, OPM-2. The test can be described thus: Cell viability assay (OPM-2 10 FBS), CellTiter-Glo. The format is cell-based. The conditions noted are these: read-out: OPM-2 10% FBS IC50 IP; OPM-2 cells, 10% FBS, 16 h incubation. An outline of the steps:
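Cells were seeded at 3000 cells/well in RPMI 1640 with 10% FBS and exposed to serially diluted compounds for 16 h at 37 °C, 5% CO2.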
For orientation: In ATP-based viability assays light output follows the ATP content of the culture.

Take “(1 S,3′R,6′R,7′S,8′E,11′S, 12′R)-6-chloro-7′-((9aS)-hexahydropyrazino[2,1-c][1,4]oxazin-8(1H)-ylmethyl)-7′-methoxy-11′,12′-dimethyl-3,4-dihydro-2H, 15′H-spiro[naphthalene-1,22′-[20]oxa[13]thia[1,14,25]triazatetracyclo[14.7.2.0-3,6˜.0˜19,24˜]pentacosa[8,16,18,24]tetraen]-15′-one 13′,13′-dioxide [Example 18]”: the values for the IC50 in test [1] and in test [4] were 0.06 nM and 22 nM, respectively. The “in vivo efficacy relative to Reference Compound 1 in a tumor PD model” value in test [2] is reported as “superior in vivo efficacy”. Besides, in test [3], the “in vivo efficacy in an OPM-2 xenograft efficacy model” value is listed as “in vivo efficacy”.
The corresponding values for `CCO[C@]1(CN2CCN3CCOC[C@@H]3C2)/C=C/C[C@H](C)[C@@H](C)S(=O)(=O)NC(=O)c2ccc3c(c2)N(C[C@@H]2CC[C@H]21)C[C@@]1(CCCc2cc(Cl)ccc21)CO3` [Example 1, (1 S,3′R,6′R,7′R,8′E, 11′S,12′R)-6-chloro-7′-ethoxy-7′-((9aS)-hexahydropyrazino[2,1-c][1,4]oxazin-8(1H)-ylmethyl)-11′,12′-dimethyl-3,4-dihydro-2H,15′H-spiro[naphthalene-1,22′-[20]oxa[13]thia[1,14]diazatetracyclo[14.7.2.0-3,6˜.0˜19,24˜]pentacosa[8,16,18,24]tetraen]-15′-one 13′,13′-dioxide] are 0.086 nM, 85 nM, “superior in vivo efficacy” and “in vivo efficacy”.
For the compound `CO[C@]1(CN2CCN3CCCC[C@@H]3C2)/C=C/C[C@H](C)[C@@H](C)S(=O)(=O)NC(=O)c2ccc3c(c2)N(C[C@@H]2CC[C@H]21)C[C@@]1(CCCc2cc(Cl)ccc21)CO3` [Example 10, (1 S,3′R,6′R,7′R,8′E, 11′S,12′R)-6-CHLORO-7′-METHOXY-11′,12′-DIMETHYL-7′-((9AR)-OCTAHYDRO-2H-PYRIDO[1,2-A]PYRAZIN-2-YLMETHYL)-3,4-DIHYDRO-2H, 15′H-SPIRO [NAPHTHALENE-1,22′-[20]OXA[13]THIA[1,14]DIAZATETRACYCLO [14.7.2.0-3,6˜.0˜19,24˜]PENTACOSA[8,16,18,24]TETRAEN]-15′-ONE 13′,13′-DIOXIDE], the “in vivo efficacy in an OPM-2 xenograft efficacy model” value in test [3] is on record as “in vivo efficacy”. Further, in test [4], the IC50 came out at 75 nM.
The corresponding values for “(1 S,3′R,6′R,7′R,8′E,11′S,12′R)-6-chloro-7′-((9aS)-hexahydropyrazino[2,1-c][1,4]oxazin-8(1H)-ylmethyl)-7′-methoxy-12′-(2-methoxyethyl)-11′-methyl-3,4-dihydro-2H, 15′H-spiro[naphthalene-1,22′-[20]oxa[13]thia[1,14]diazatetracyclo[14.7.2.0-3,6˜.0˜19,24˜]pentacosa[8,16,18,24]tetraen]-15′-one 13′,13′-dioxide [Example 11]” are “in vivo efficacy” and 51 nM.
As for `CO[C@]1(CN2CCN(C3COC3)CC2)/C=C/C[C@H](C)[C@@H](C)S(=O)(=O)NC(=O)c2ccc3c(c2)N(C[C@@H]2CC[C@H]21)C[C@@]1(CCCc2cc(Cl)ccc21)CO3` [Example 3, (1 S,3′R,6′R,7′R,8′E,11′S,12′R)-6-chloro-7′-methoxy-11′,12′-dimethyl-7′-((4-(3-oxetanyl)-1-piperazinyl)methyl)-3,4-dihydro-2H, 15′H-spiro[naphthalene-1,22′-[20]oxa[13]thia[1,14]diazatetracyclo[14.7.2.0-3,6˜.0˜19,24˜]pentacosa[8,16,18,24]tetraen]-15′-one 13′,13′-dioxide], the IC50 was determined as 0.094 nM in test [1] and 60 nM in test [4]. Further, the “in vivo efficacy relative to Reference Compound 1 in a tumor PD model” value in test [2] was “superior in vivo efficacy”.

The term IC50 denotes the concentration that inhibits the measured activity by half.
